Data on 20 compounds can be found in US8940897B2, “1,3,4-oxadiazole and 1,3,4-thiadiazole β-lactamase inhibitors” (priority 2012, dated 2015).

Structures are written as SMILES. Structures can show the parent of a compound that is named as a salt.

Assay [1] has as its system bacterial strains that express KPC β-lactamases. Kind of assay: Synergy MIC / standard BLI potentiation MIC assay, strains expressing KPC β-lactamases. To be noted: for at least one KPC strain and/or a better spectrum of activity against KPC strains than Avibactam; in the presence of a β-lactam. The class given is cell-based. In outline: (§1)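 CLSI broth microdilution in CAMHB, ~10^5 CFU/mL, 18–20 h at 37 °C with aeration; engineered E. coli kept on 25 μg/mL tetracycline. Potentiation: β-lactam 128–0.13 μg/mL with BLI fixed at 4 μg/mL; synergy MIC: BLI serially diluted with fixed β-lactam. MIC is the lowest concentration without visible turbidity.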

The test system of assay [2] is bacterial strains that express the class D cephalosporinase OXA-15. Kind of assay: Synergy MIC / standard BLI potentiation MIC assay, strains expressing OXA-15.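 Further: more active means a lower MIC or sMIC than Avibactam.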 The class given is cell-based, E. coli. As to conditions: in the presence of a β-lactam; comparator Avibactam (CCC). In outline: as §1

In the case of `N=C(N)N[C@H]1C[C@@H](c2nnc([C@@H]3CC[C@@H]4CN3C(=O)N4OS(=O)(=O)O)s2)C1` [Compound 784, (2S,5R)-2-(5-((1s,3R)-3-guanidinocyclobutyl)-1,3,4-thiadiazol-2-yl)-7-oxo-1,6-diazabicyclo[3.2.1]octan-6-yl hydrogen sulfate], the “activity against bacterial strains that express KPC β-lactamase compared with Avibactam” value in assay [1] was “more active than Avibactam”. Further, the “activity against bacterial strains that express OXA-15 β-lactamase compared with Avibactam” value in assay [2] is listed as “more active than Avibactam”.

As to `O=C1N2C[C@@H](CC[C@H]2c2nnc(CCCNC3CCNCC3)o2)N1OS(=O)(=O)O` [Compound 771, (2S,5R)-7-oxo-2-(5-(3-(piperidin-4-ylamino)propyl)-1,3,4-oxadiazol-2-yl)-1,6-diazabicyclo[3.2.1]octan-6-yl hydrogen sulfate], in assay [1], the “activity against bacterial strains that express KPC β-lactamase compared with Avibactam” value is recorded as “more active than Avibactam”. The “activity against bacterial strains that express OXA-15 β-lactamase compared with Avibactam” value in assay [2] is listed as “more active than Avibactam”.

Turning to `O=C1N2C[C@@H](CC[C@H]2c2nnc([C@H]3[C@@H]4CNC[C@@H]43)o2)N1OS(=O)(=O)O` [Compound 740, (2S,5R)-2-(5-(3-azabicyclo[3.1.0]hexan-6-yl)-1,3,4-oxadiazol-2-yl)-7-oxo-1,6-diazabicyclo[3.2.1]octan-6-yl hydrogen sulfate], in assay [1], the “activity against bacterial strains that express KPC β-lactamase compared with Avibactam” value is given as “more active than Avibactam”. Further, the “activity against bacterial strains that express OXA-15 β-lactamase compared with Avibactam” value in assay [2] was “more active than Avibactam”.

Take `NCc1nnc([C@@H]2CC[C@@H]3CN2C(=O)N3OS(=O)(=O)O)o1` [Compound 702, (2S,5R)-2-(5-(aminomethyl)-1,3,4-oxadiazol-2-yl)-7-oxo-1,6-diazabicyclo[3.2.1]octan-6-yl hydrogen sulfate]: the “activity against bacterial strains that express KPC β-lactamase compared with Avibactam” value in assay [1] is “more active than Avibactam”. Moreover, the “activity against bacterial strains that express OXA-15 β-lactamase compared with Avibactam” value in assay [2] is given as “more active than Avibactam”.

Consider `N[C@H]1C[C@H](c2nnc([C@@H]3CC[C@@H]4CN3C(=O)N4OS(=O)(=O)O)o2)C1` [Compound 727, (2S,5R)-2-(5-((1r,3S)-3-aminocyclobutyl)-1,3,4-oxadiazol-2-yl)-7-oxo-1,6-diazabicyclo[3.2.1]octan-6-yl hydrogen sulfate], for which the “activity against bacterial strains that express KPC β-lactamase compared with Avibactam” value in assay [1] is recorded as “more active than Avibactam”. Also, in assay [2], the “activity against bacterial strains that express OXA-15 β-lactamase compared with Avibactam” value is on record as “more active than Avibactam”.

Consider `O=C1N2C[C@@H](CC[C@H]2c2nnc(CN[C@H]3CCNC3)o2)N1OS(=O)(=O)O` [Compound 765, (2S,5R)-7-oxo-2-(5-(((S)-pyrrolidin-3-ylamino)methyl)-1,3,4-oxadiazol-2-yl)-1,6-diazabicyclo[3.2.1]octan-6-yl hydrogen sulfate], for which the “activity against bacterial strains that express KPC β-lactamase compared with Avibactam” value in assay [1] was “more active than Avibactam”. For the same compound, the “activity against bacterial strains that express OXA-15 β-lactamase compared with Avibactam” value in assay [2] is on record as “more active than Avibactam”.

On to `O=C1N2C[C@@H](CC[C@H]2c2nnc(COC3CNC3)o2)N1OS(=O)(=O)O` [Compound 744, (2S,5R)-2-(5-((azetidin-3-yloxy)methyl)-1,3,4-oxadiazol-2-yl)-7-oxo-1,6-diazabicyclo[3.2.1]octan-6-yl hydrogen sulfate], for which the “activity against bacterial strains that express KPC β-lactamase compared with Avibactam” value in assay [1] is listed as “more active than Avibactam”. For the same compound, in assay [2], the “activity against bacterial strains that express OXA-15 β-lactamase compared with Avibactam” value is “more active than Avibactam”.

Consider `N=C(N)NC1CC(Cc2nnc([C@@H]3CC[C@@H]4CN3C(=O)N4OS(=O)(=O)O)o2)C1` (stereo partly drawn) [Compound 752, (2S,5R)-2-(5-((3-guanidinocyclobutyl)methyl)-1,3,4-oxadiazol-2-yl)-7-oxo-1,6-diazabicyclo[3.2.1]octan-6-yl hydrogen sulfate], for which the “activity against bacterial strains that express KPC β-lactamase compared with Avibactam” value in assay [1] is recorded as “more active than Avibactam”. For the same compound, the “activity against bacterial strains that express OXA-15 β-lactamase compared with Avibactam” value in assay [2] was “more active than Avibactam”.

Regarding `O=C1N2C[C@@H](CC[C@H]2c2nnc(CCNC3CNC3)o2)N1OS(=O)(=O)O` [Compound 745, (2S,5R)-2-(5-(2-(azetidin-3-ylamino)ethyl)-1,3,4-oxadiazol-2-yl)-7-oxo-1,6-diazabicyclo[3.2.1]octan-6-yl hydrogen sulfate], in assay [1], the “activity against bacterial strains that express KPC β-lactamase compared with Avibactam” value was “more active than Avibactam”. The “activity against bacterial strains that express OXA-15 β-lactamase compared with Avibactam” value in assay [2] is recorded as “more active than Avibactam”.

For the compound `N=C(N)NCC1(c2nnc([C@@H]3CC[C@@H]4CN3C(=O)N4OS(=O)(=O)O)o2)CC1` [Compound 723, (2S,5R)-2-(5-(1-(guanidinomethyl)cyclopropyl)-1,3,4-oxadiazol-2-yl)-7-oxo-1,6-diazabicyclo[3.2.1]octan-6-yl hydrogen sulfate], the “activity against bacterial strains that express KPC β-lactamase compared with Avibactam” value in assay [1] is given as “more active than Avibactam”. In addition, the “activity against bacterial strains that express OXA-15 β-lactamase compared with Avibactam” value in assay [2] is “more active than Avibactam”.

`NCCCCc1nnc([C@@H]2CC[C@@H]3CN2C(=O)N3OS(=O)(=O)O)o1` [Compound 735, (2S,5R)-2-(5-(4-aminobutyl)-1,3,4-oxadiazol-2-yl)-7-oxo-1,6-diazabicyclo[3.2.1]octan-6-yl hydrogen sulfate]: the “activity against bacterial strains that express KPC β-lactamase compared with Avibactam” value in assay [1] was “more active than Avibactam”. Moreover, the “activity against bacterial strains that express OXA-15 β-lactamase compared with Avibactam” value in assay [2] is listed as “more active than Avibactam”.

With `N=C(N)N1CC(NCc2nnc([C@@H]3CC[C@@H]4CN3C(=O)N4OS(=O)(=O)O)o2)C1` [Compound 746, (2S,5R)-2-(5-(((1-carbamimidoylazetidin-3-yl)amino)methyl)-1,3,4-oxadiazol-2-yl)-7-oxo-1,6-diazabicyclo[3.2.1]octan-6-yl hydrogen sulfate], the “activity against bacterial strains that express KPC β-lactamase compared with Avibactam” value in assay [1] is given as “more active than Avibactam”. Further, the “activity against bacterial strains that express OXA-15 β-lactamase compared with Avibactam” value in assay [2] is on record as “more active than Avibactam”.

Consider `N=C(N)N[C@H]1C[C@@H](c2nnc([C@@H]3CC[C@@H]4CN3C(=O)N4OS(=O)(=O)O)o2)C1` [Compound 749, (2S,5R)-2-(5-((1s,3R)-3-guanidinocyclobutyl)-1,3,4-oxadiazol-2-yl)-7-oxo-1,6-diazabicyclo[3.2.1]octan-6-yl hydrogen sulfate], for which the “activity against bacterial strains that express KPC β-lactamase compared with Avibactam” value in assay [1] was “more active than Avibactam”. Also, the “activity against bacterial strains that express OXA-15 β-lactamase compared with Avibactam” value in assay [2] is reported as “more active than Avibactam”.

As to `N[C@@H]1CC[C@H](c2nnc([C@@H]3CC[C@@H]4CN3C(=O)N4OS(=O)(=O)O)o2)C1` [Compound 729, (2S,5R)-2-(5-((1S,3R)-3-aminocyclopentyl)-1,3,4-oxadiazol-2-yl)-7-oxo-1,6-diazabicyclo[3.2.1]octan-6-yl hydrogen sulfate], in assay [1], the “activity against bacterial strains that express KPC β-lactamase compared with Avibactam” value was “more active than Avibactam”. Further, the “activity against bacterial strains that express OXA-15 β-lactamase compared with Avibactam” value in assay [2] is reported as “more active than Avibactam”.

As for `N[C@@H]1CN[C@H](c2nnc([C@@H]3CC[C@@H]4CN3C(=O)N4OS(=O)(=O)O)o2)C1` [Compound 760, (2S,5R)-2-(5-((2S,4S)-4-aminopyrrolidin-2-yl)-1,3,4-oxadiazol-2-yl)-7-oxo-1,6-diazabicyclo[3.2.1]octan-6-yl hydrogen sulfate], the “activity against bacterial strains that express KPC β-lactamase compared with Avibactam” value in assay [1] was “more active than Avibactam”. Also, the “activity against bacterial strains that express OXA-15 β-lactamase compared with Avibactam” value in assay [2] is listed as “more active than Avibactam”.

For `NCCc1nnc([C@@H]2CC[C@@H]3CN2C(=O)N3OS(=O)(=O)O)o1` [Compound 703, (2S,5R)-2-(5-(2-aminoethyl)-1,3,4-oxadiazol-2-yl)-7-oxo-1,6-diazabicyclo[3.2.1]octan-6-yl hydrogen sulfate], the “activity against bacterial strains that express KPC β-lactamase compared with Avibactam” value in assay [1] is on record as “more active than Avibactam”. Further, the “activity against bacterial strains that express OXA-15 β-lactamase compared with Avibactam” value in assay [2] is “more active than Avibactam”.

In the case of `N[C@H]1CN[C@H](c2nnc([C@@H]3CC[C@@H]4CN3C(=O)N4OS(=O)(=O)O)o2)C1` [Compound 762, (2S,5R)-2-(5-((2S,4R)-4-aminopyrrolidin-2-yl)-1,3,4-oxadiazol-2-yl)-7-oxo-1,6-diazabicyclo[3.2.1]octan-6-yl hydrogen sulfate], the “activity against bacterial strains that express KPC β-lactamase compared with Avibactam” value in assay [1] was “more active than Avibactam”. For the same compound, the “activity against bacterial strains that express OXA-15 β-lactamase compared with Avibactam” value in assay [2] is recorded as “more active than Avibactam”.

As for `O=C1N2C[C@@H](CC[C@H]2c2nnc([C@H]3CNCCN3)o2)N1OS(=O)(=O)O` [Compound 779, (2S,5R)-7-oxo-2-(5-((R)-piperazin-2-yl)-1,3,4-oxadiazol-2-yl)-1,6-diazabicyclo[3.2.1]octan-6-yl hydrogen sulfate], in assay [1], the “activity against bacterial strains that express KPC β-lactamase compared with Avibactam” value is given as “more active than Avibactam”. In addition, the “activity against bacterial strains that express OXA-15 β-lactamase compared with Avibactam” value in assay [2] is recorded as “more active than Avibactam”.

Turning to `N=C(N)NC1(Cc2nnc([C@@H]3CC[C@@H]4CN3C(=O)N4OS(=O)(=O)O)o2)CC1` [Compound 739, (2S,5R)-2-(5-((1-guanidinocyclopropyl)methyl)-1,3,4-oxadiazol-2-yl)-7-oxo-1,6-diazabicyclo[3.2.1]octan-6-yl hydrogen sulfate], in assay [1], the “activity against bacterial strains that express KPC β-lactamase compared with Avibactam” value was “more active than Avibactam”. Further, the “activity against bacterial strains that express OXA-15 β-lactamase compared with Avibactam” value in assay [2] is reported as “more active than Avibactam”.

Consider `N=C(N)NC[C@H](O)c1nnc([C@@H]2CC[C@@H]3CN2C(=O)N3OS(=O)(=O)O)o1` [Compound 732, (2S,5R)-2-(5-((S)-2-guanidino-1-hydroxyethyl)-1,3,4-oxadiazol-2-yl)-7-oxo-1,6-diazabicyclo[3.2.1]octan-6-yl hydrogen sulfate], for which, in assay [1], the “activity against bacterial strains that express KPC β-lactamase compared with Avibactam” value is on record as “more active than Avibactam”. Further, in assay [2], the “activity against bacterial strains that express OXA-15 β-lactamase compared with Avibactam” value is on record as “more active than Avibactam”.
